“Also recorded” adds a separate entry of the source.
Experiments:
[1] = test system: eyes of ocular normotensive cynomolgus monkeys; assay: Intraocular pressure (IOP) by Goldmann applanation tonometry after 5 twice-daily unilateral topical treatments; format: in vivo, cynomolgus monkeys (Macaca fascicularis); settings: Example 1; for rank order of ocular hypotensive effect: 5 uniocular topical treatments at the same dose; for IOP after the 5th treatment / IOP prior to the 5th treatment compared with baseline: AGR 5 μg n=4, 2MD 6 μg n=8; for IOP prior to the 5th treatment compared with baseline: both treated and control eye
Experimental: Ocular normotensive adult cynomolgus monkeys (Macaca fascicularis), of either sex, weighing 3-7 kg were anesthetized with i.m. ketamine HCl (3-25 mg/kg, supplemented with 1-10 mg/kg) for IOP and topical drop administration. All monkeys were free of any ocular abnormalities according to slit lamp biomicroscopy at the time measurements were taken. The monkeys were provided by the Primate Center at the University of Wisconsin-Madison. All experiments were done in accordance with the ARVO Statement on the Use of Animals in Ophthalmic and Vision Research.
(§1) The intraocular pressure (IOP) was determined with a “minified” Goldmann applanation tonometer [Kaufman, 1980] using HALF AND HALF™ creamer solution (Borden) as the tear film indicator [Croft, 1997] with the monkey lying prone in a head holder and the eyes positioned 4 to 8 cm above the heart. All monkeys were examined by slit-lamp before the first IOP measurement in each protocol. For each eye, two or three IOP measurements were averaged as a baseline.
Under ketamine anesthesia (KETAJECT™, Phoenix Pharmaceutical, St Joseph, Mo. (3-25 mg/kg i.m., supplemented with 1-10 mg/kg i.m. as needed) baseline IOP was determined, usually between 7:30 and 9 am (2 readings, 5 minutes apart; if IOP baseline measurements were not within 2-3 mm Hg of each other, a 3rd reading was taken 5 min later). Baseline IOP was at least 15 mmHg if possible. A baseline blood sample was taken from the femoral artery or vein, or sometimes the brachial vein (1-2 ml). This was allowed to clot and then spun down (3000 rpm for 10 min, Damon/IEC NH-SII centrifuge) and the serum removed and frozen at −20 C for no more than 1 week. Baseline systolic, diastolic and mean arterial pressure as well as heart rate were recorded with the Dinamap monitor from a cuff placed around the arm or the leg.
After baseline measurements, the monkey was place supine with the eye pointing up and the eyelid held open. A 5 μl drop of test material or vehicle was delivered to opposite eyes. The eyelid was held open for at least 30 sec and the eye was maintained in the upward position for an additional 30 sec. The monkey was then returned to its cage and allowed to wake up. In the afternoon, at least 6 hours after the morning treatment, another treatment was administered. On the second day, dosing was repeated in the am and pm.
(§2) On the 3th day, prior to the 5th treatment, baseline IOP, biomicroscopy and MAP were determined. Preliminary studies indicated an effect was observed after these treatments but not after a single treatment. Following the 5th dose, IOP was measured at 1, 2, 3, 4, 5, 6, 7, 8, 12 (if possible), 24, and sometimes 48 hr. Biomicroscopy was done at 1, 3, 6, 24 and sometimes 48 hr. MAP on day 3 (some protocols) was determined at 1, 2, 3, 4, 5, 6, 7, 8, 24 and sometimes 48 hr if possible. Blood samples after the 5th treatment were collected at 6, 24, and sometimes 48 hr. For some protocols, IOP was also measured prior to each treatment; MAP was measured prior to the morning treatment; blood was collected prior to the afternoon treatment. Subsequent screening protocols will not include the MAP and blood collections and will only measure IOP at baseline and prior to and for 1-6 hr after the 5th treatment.
Adult cynomolgus monkeys (Macaca fascicularis) of either sex were anesthetized with intramuscular ketamine HCl (10 mg/kg initial, 5 mg/kg supplemental). Baseline pretreatment IOP was determined by Goldmann applanation tonometry [Kaufman, 1980] with […] used as a tear film indicator [Croft, 1997]. Two baseline IOP measurements were taken 5 minutes apart. […]

[2] = Ocular inflammation by slit-lamp biomicroscopy; format: in vivo, cynomolgus monkeys (Macaca fascicularis); settings: Example 1; 5 topical treatments, 5 μg (2MD 6 μg)
Experimental: as §1, §2
Baseline pretreatment IOP was determined by Goldmann applanation tonometry [Kaufman, 1980] with […] used as a tear film indicator [Croft, 1997]. Two baseline IOP measurements were taken 5 minutes apart. Monkeys were then treated topically with 5 μl of 1,25-dihydroxyvitamin D3 (1,25-(OH)2D3) (0.1-5 μg) to one eye and vehicle (propylene glycol) to the opposite eye twice a day for 5 treatments total. […] IOP was also measured prior to the afternoon treatment. On the third day, IOP was measured prior to the morning treatment. Following the fifth treatment, IOP was measured hourly for 8 hours and, in some cases, also at 12, 24, and 48 hours. […]

SMILES | rank order of ocular hypotensive effect [1] | IOP after the 5th treatment [1] | IOP prior to the 5th treatment compared with baseline [1] | ocular inflammation [2] | IOP in treated eye compared with control eye ([1]; 5 μg (2MD 6 μg) in 5 μl propylene glycol one eye, vehicle opposite eye) | IOP in the control (vehicle, contralateral) eye after the 5th treatment ([1]; AGR 5 μg in opposite eye)
C=C1[C@H](O)CC(=C/C=C2\CCC[C@]3(C)[C@@H]([C@@H](C)CCCC(C)(C)O)CC[C@@H]23)C[C@H]1O [2MD, 2-methylene-19-nor-(20S)-1α,25-dihydroxyvitamin D3] | 1,25(OH)2D3>2MD>AGR | gradually decreased over the next 8 hours similar to the diurnal decline seen with vehicle alone; also recorded: small drug effect at 6 and 7 hours | no different than at baseline | no ocular inflammation at any time-point | – | –
CC(CCCC(C)(C)O)C1CCC2C(=CC=C3CC(O)C(=CCCO)C(O)C3)CCCC21C (stereo not drawn) [AGR, 2-(3′-hydroxypropylidene)-19-nor-1α,25-dihydroxyvitamin D3] | 1,25(OH)2D3>2MD>AGR | not significantly decreased in the treated eye except at the 3 hr time point | no different than at baseline | no ocular inflammation at any time-point | no difference between the eyes at any time-point | no change in IOP in the control eye

— patent US9452177B2, “Vitamin D compounds and methods for reducing ocular hypertension (OHT)” (Wisconsin Alumni Research Foundation, priority 2008, dated 2016)
